Measured values published in PubChem BioAssay (NCI).
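Exposure lasted 48 hours, with cells grown in 96-well plates and compounds tested at five concentrations. GI50 is the concentration that inhibits growth by half. At the TGI there is no net growth.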

What was measured:
Test in all cases: growth of human tumour cells (NCI), 48 h
786-0 renal = tested on: 786-0 renal
A498 renal = tested on: A498 renal
A549 NSCLC = tested on: A549 NSCLC
ACHN renal = tested on: ACHN renal
BT-549 breast = tested on: BT-549 breast
CAKI-1 renal = tested on: CAKI-1 renal
CCRF-CEM leukemia = tested on: CCRF-CEM leukemia
COLO 205 colon = tested on: COLO 205 colon
DU-145 prostate = tested on: DU-145 prostate
EKVX NSCLC = tested on: EKVX NSCLC
HCC-2998 colon = tested on: HCC-2998 colon
HCT-116 colon = tested on: HCT-116 colon
HCT-15 colon = tested on: HCT-15 colon
HL-60(TB) leukemia = tested on: HL-60(TB) leukemia
HOP-62 NSCLC = tested on: HOP-62 NSCLC
HOP-92 NSCLC = tested on: HOP-92 NSCLC
HS 578T breast = tested on: HS 578T breast
HT29 colon = tested on: HT29 colon
IGROV1 ovarian = tested on: IGROV1 ovarian
K-562 leukemia = tested on: K-562 leukemia
KM12 colon = tested on: KM12 colon
LOX IMVI melanoma = tested on: LOX IMVI melanoma
M14 melanoma = tested on: M14 melanoma
MALME-3M melanoma = tested on: MALME-3M melanoma
MCF7 breast = tested on: MCF7 breast
MDA-MB-231 breast = tested on: MDA-MB-231 breast
MDA-MB-435 = tested on: MDA-MB-435
MOLT-4 leukemia = tested on: MOLT-4 leukemia
NCI-H226 lung = tested on: NCI-H226 lung
NCI-H23 lung = tested on: NCI-H23 lung
NCI-H460 lung = tested on: NCI-H460 lung
NCI-H522 lung = tested on: NCI-H522 lung
NCI/ADR-RES ovarian = tested on: NCI/ADR-RES ovarian
OVCAR-3 ovarian = tested on: OVCAR-3 ovarian
OVCAR-4 ovarian = tested on: OVCAR-4 ovarian
OVCAR-5 ovarian = tested on: OVCAR-5 ovarian
OVCAR-8 ovarian = tested on: OVCAR-8 ovarian
PC-3 prostate = tested on: PC-3 prostate
RPMI-8226 leukemia = tested on: RPMI-8226 leukemia
RXF 393 renal = tested on: RXF 393 renal
SF-268 CNS = tested on: SF-268 CNS
SF-295 CNS = tested on: SF-295 CNS
SF-539 CNS = tested on: SF-539 CNS
SK-MEL-2 melanoma = tested on: SK-MEL-2 melanoma
SK-MEL-28 melanoma = tested on: SK-MEL-28 melanoma
SK-MEL-5 melanoma = tested on: SK-MEL-5 melanoma
SK-OV-3 ovarian = tested on: SK-OV-3 ovarian
SN12C renal = tested on: SN12C renal
SNB-19 CNS = tested on: SNB-19 CNS
SNB-75 CNS = tested on: SNB-75 CNS
SR leukemia = tested on: SR leukemia
SW-620 colon = tested on: SW-620 colon
T-47D breast = tested on: T-47D breast
TK-10 renal = tested on: TK-10 renal
U251 CNS = tested on: U251 CNS
UACC-257 melanoma = tested on: UACC-257 melanoma
UACC-62 melanoma = tested on: UACC-62 melanoma
UO-31 renal = tested on: UO-31 renal

Structure (SMILES): Cc1cc(-c2ccc(C3C(C#N)=C(N)Oc4c3c(=O)oc3ccccc43)cc2)cnc1F (stereo unspecified)
- GI50 (786-0 renal): 50.8 µM
- TGI (786-0 renal): > 100 µM
- GI50 (A498 renal): > 100 µM
- TGI (A498 renal): > 100 µM
- GI50 (A549 NSCLC): > 100 µM
- TGI (A549 NSCLC): > 100 µM
- GI50 (ACHN renal): 55.9 µM
- TGI (ACHN renal): > 100 µM
- GI50 (BT-549 breast): 23.9 µM
- TGI (BT-549 breast): > 100 µM
- GI50 (CAKI-1 renal): 41 µM
- TGI (CAKI-1 renal): > 100 µM
- GI50 (CCRF-CEM leukemia): 535 nM
- TGI (CCRF-CEM leukemia): > 100 µM
- GI50 (COLO 205 colon): > 100 µM
- TGI (COLO 205 colon): > 100 µM
- GI50 (DU-145 prostate): 49 µM
- TGI (DU-145 prostate): > 100 µM
- GI50 (EKVX NSCLC): 71.3 µM
- TGI (EKVX NSCLC): > 100 µM
- GI50 (HCC-2998 colon): 89 µM
- TGI (HCC-2998 colon): > 100 µM
- GI50 (HCT-116 colon): 29.4 µM
- TGI (HCT-116 colon): > 100 µM
- GI50 (HCT-15 colon): 42.3 µM
- TGI (HCT-15 colon): > 100 µM
- GI50 (HL-60(TB) leukemia): 43.4 µM
- TGI (HL-60(TB) leukemia): > 100 µM
- GI50 (HOP-62 NSCLC): 88.5 µM
- TGI (HOP-62 NSCLC): > 100 µM
- GI50 (HOP-92 NSCLC): 1630 nM
- TGI (HOP-92 NSCLC): 74.1 µM
- GI50 (HS 578T breast): 67.8 µM
- TGI (HS 578T breast): > 100 µM
- GI50 (HT29 colon): 43.4 µM
- TGI (HT29 colon): > 100 µM
- GI50 (IGROV1 ovarian): > 100 µM
- TGI (IGROV1 ovarian): > 100 µM
- GI50 (K-562 leukemia): 35 µM
- TGI (K-562 leukemia): > 100 µM
- GI50 (KM12 colon): > 100 µM
- TGI (KM12 colon): > 100 µM
- GI50 (LOX IMVI melanoma): 44.4 µM
- TGI (LOX IMVI melanoma): > 100 µM
- GI50 (M14 melanoma): > 100 µM
- TGI (M14 melanoma): > 100 µM
- GI50 (MALME-3M melanoma): > 100 µM
- TGI (MALME-3M melanoma): > 100 µM
- GI50 (MCF7 breast): 48.9 µM
- TGI (MCF7 breast): > 100 µM
- GI50 (MDA-MB-231 breast): > 100 µM
- TGI (MDA-MB-231 breast): > 100 µM
- GI50 (MDA-MB-435): > 100 µM
- TGI (MDA-MB-435): > 100 µM
- GI50 (MOLT-4 leukemia): 27.8 µM
- TGI (MOLT-4 leukemia): > 100 µM
- GI50 (NCI-H226 lung): 34.2 µM
- TGI (NCI-H226 lung): > 100 µM
- GI50 (NCI-H23 lung): 38.7 µM
- TGI (NCI-H23 lung): > 100 µM
- GI50 (NCI-H460 lung): > 100 µM
- TGI (NCI-H460 lung): > 100 µM
- GI50 (NCI-H522 lung): 22.5 µM
- TGI (NCI-H522 lung): > 100 µM
- GI50 (NCI/ADR-RES ovarian): 68.7 µM
- TGI (NCI/ADR-RES ovarian): > 100 µM
- GI50 (OVCAR-3 ovarian): 33.9 µM
- TGI (OVCAR-3 ovarian): > 100 µM
- GI50 (OVCAR-4 ovarian): 39.3 µM
- TGI (OVCAR-4 ovarian): > 100 µM
- GI50 (OVCAR-5 ovarian): 85.9 µM
- TGI (OVCAR-5 ovarian): > 100 µM
- GI50 (OVCAR-8 ovarian): > 100 µM
- TGI (OVCAR-8 ovarian): > 100 µM
- GI50 (PC-3 prostate): 40.2 µM
- TGI (PC-3 prostate): > 100 µM
- GI50 (RPMI-8226 leukemia): 38.4 µM
- TGI (RPMI-8226 leukemia): > 100 µM
- GI50 (RXF 393 renal): 12.8 µM
- TGI (RXF 393 renal): 77.3 µM
- GI50 (SF-268 CNS): 64.9 µM
- TGI (SF-268 CNS): > 100 µM
- GI50 (SF-295 CNS): 88 µM
- TGI (SF-295 CNS): > 100 µM
- GI50 (SF-539 CNS): 46 µM
- TGI (SF-539 CNS): > 100 µM
- GI50 (SK-MEL-2 melanoma): 35.3 µM
- TGI (SK-MEL-2 melanoma): > 100 µM
- GI50 (SK-MEL-28 melanoma): > 100 µM
- TGI (SK-MEL-28 melanoma): > 100 µM
- GI50 (SK-MEL-5 melanoma): 81 µM
- TGI (SK-MEL-5 melanoma): > 100 µM
- GI50 (SK-OV-3 ovarian): 59.8 µM
- TGI (SK-OV-3 ovarian): > 100 µM
- GI50 (SN12C renal): 81.2 µM
- TGI (SN12C renal): > 100 µM
- GI50 (SNB-19 CNS): > 100 µM
- TGI (SNB-19 CNS): > 100 µM
- GI50 (SNB-75 CNS): 22.4 µM
- TGI (SNB-75 CNS): > 100 µM
- GI50 (SR leukemia): 33.6 µM
- TGI (SR leukemia): > 100 µM
- GI50 (SW-620 colon): 85.3 µM
- TGI (SW-620 colon): > 100 µM
- GI50 (T-47D breast): 29.5 µM
- TGI (T-47D breast): > 100 µM
- GI50 (TK-10 renal): 39.3 µM
- TGI (TK-10 renal): > 100 µM
- GI50 (U251 CNS): > 100 µM
- TGI (U251 CNS): > 100 µM
- GI50 (UACC-257 melanoma): > 100 µM
- TGI (UACC-257 melanoma): > 100 µM
- GI50 (UACC-62 melanoma): 43.8 µM
- TGI (UACC-62 melanoma): > 100 µM
- GI50 (UO-31 renal): 26.9 µM
- TGI (UO-31 renal): > 100 µM
